The text below walks through data of ChEMBL document CHEMBL3091431, “Aminopyridyl/Pyrazinyl Spiro[indoline-3,4'-piperidine]-2-ones As Highly Selective and Efficacious c-Met/ALK Inhibitors” (ACS Med Chem Lett, 2013).

In data set [1] the target is Hepatocyte growth factor receptor (Homo sapiens, UniProt P08581). Kind of data set: Inhibition of c-Met phosphorylation in human […] cells after 1 hr by western blotting. Format: cell-based.
Data set [2] is described as follows: Oral bioavailability in BALB/c mouse at 20 mg/kg. It counts as ADME, organism-based. As to conditions: in vivo.
The nature of data set [3]: AUC (0 to infinity) in BALB/c mouse at 5 mg/kg, iv. Format: ADME, organism-based. More on the design: time infinity, dose 5 mg/kg, route intravenous. The note with it: plasma.
The nature of data set [4]: cells. The note with it: Homo sapiens, NCI-H441, 48 h.
Description: Antiproliferative activity against human H441 cells after 48 hrs by MTT assay
Data set [5] is described as follows: Cmax in BALB/c mouse at 20 mg/kg, po. It counts as ADME, organism-based. Set-up: dose 20 mg/kg, route oral. The note with it: in vivo.
Data set [6] deals with T1, ALK tyrosine kinase receptor (Homo sapiens, UniProt Q9UM73). Description: Inhibition of human ALK (unknown origin) using poly[Glu:Tyr] as substrate by nanoliter kinase assay.
Target sequence in this assay (Q9UM73 whole entry): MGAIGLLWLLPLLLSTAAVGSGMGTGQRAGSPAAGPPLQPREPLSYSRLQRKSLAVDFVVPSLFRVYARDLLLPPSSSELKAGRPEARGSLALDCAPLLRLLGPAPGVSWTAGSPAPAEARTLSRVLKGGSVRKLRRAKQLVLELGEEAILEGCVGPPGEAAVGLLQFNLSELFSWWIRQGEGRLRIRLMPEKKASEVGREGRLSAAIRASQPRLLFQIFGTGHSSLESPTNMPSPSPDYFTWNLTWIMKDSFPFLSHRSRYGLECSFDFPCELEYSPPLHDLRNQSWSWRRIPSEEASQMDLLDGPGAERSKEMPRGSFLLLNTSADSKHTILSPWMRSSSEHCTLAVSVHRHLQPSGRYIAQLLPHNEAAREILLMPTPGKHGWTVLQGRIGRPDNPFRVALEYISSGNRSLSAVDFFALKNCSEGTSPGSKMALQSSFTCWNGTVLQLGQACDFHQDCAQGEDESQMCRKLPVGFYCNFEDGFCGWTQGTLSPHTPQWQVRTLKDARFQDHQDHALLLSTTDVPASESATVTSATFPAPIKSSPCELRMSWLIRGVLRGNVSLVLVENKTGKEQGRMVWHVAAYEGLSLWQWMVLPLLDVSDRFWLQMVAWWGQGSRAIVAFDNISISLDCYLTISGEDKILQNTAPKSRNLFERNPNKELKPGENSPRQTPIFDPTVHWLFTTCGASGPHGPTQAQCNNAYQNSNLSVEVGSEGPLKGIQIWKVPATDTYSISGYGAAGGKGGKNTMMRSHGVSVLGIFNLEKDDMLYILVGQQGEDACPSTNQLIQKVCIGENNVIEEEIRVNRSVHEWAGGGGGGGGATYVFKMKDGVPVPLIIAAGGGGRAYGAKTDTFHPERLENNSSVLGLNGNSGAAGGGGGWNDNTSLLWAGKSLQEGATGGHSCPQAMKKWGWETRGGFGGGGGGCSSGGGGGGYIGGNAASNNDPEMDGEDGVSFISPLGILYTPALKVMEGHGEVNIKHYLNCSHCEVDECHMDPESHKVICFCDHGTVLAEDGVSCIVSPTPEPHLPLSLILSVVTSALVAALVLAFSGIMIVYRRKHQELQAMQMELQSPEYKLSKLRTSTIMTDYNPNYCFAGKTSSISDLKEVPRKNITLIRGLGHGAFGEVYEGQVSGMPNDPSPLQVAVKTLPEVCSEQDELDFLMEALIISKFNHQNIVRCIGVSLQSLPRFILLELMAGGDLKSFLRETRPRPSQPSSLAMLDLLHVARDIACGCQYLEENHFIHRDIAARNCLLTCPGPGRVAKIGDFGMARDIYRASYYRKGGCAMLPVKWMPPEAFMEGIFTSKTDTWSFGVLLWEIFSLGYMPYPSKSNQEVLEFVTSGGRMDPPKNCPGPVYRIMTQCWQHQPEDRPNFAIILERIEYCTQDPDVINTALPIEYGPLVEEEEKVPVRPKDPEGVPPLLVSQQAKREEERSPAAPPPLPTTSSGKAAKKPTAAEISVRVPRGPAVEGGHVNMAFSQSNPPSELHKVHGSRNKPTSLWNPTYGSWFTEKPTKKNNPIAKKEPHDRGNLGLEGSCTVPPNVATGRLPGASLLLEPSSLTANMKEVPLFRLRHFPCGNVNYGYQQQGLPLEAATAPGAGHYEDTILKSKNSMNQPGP
In data set [7] the test system is Mus musculus. Description: Bioavailability in BALB/c mouse at 5 mg/kg, iv. Format: ADME, organism-based. The note with it: in vivo.
Data set [8] can be described thus: cells. The note with it: Homo sapiens, GTL 16, 48 h.
Description: Antiproliferative activity against human GTL16 cells after 48 hrs by MTT assay
Data set [9] relates to Mus musculus. Kind of data set: Toxicity in human GTL16 cells xenografted nu/nu mouse model assessed as change in body weight at 20 mg/kg, po qd for 14 days. Format: organism-based. Set-up: dose 20 mg/kg, route oral. The note with it: in vivo, 336 h.
Data set [10] can be described thus: animal or person. The note with it: Homo sapiens, GTL 16, po, 336 h, read-out: TGI.
Description: Antitumor activity against human GTL16 cells xenografted in nu/nu mouse assessed as tumor growth inhibition at 20 mg/kg, po qd for 14 days
The nature of data set [11]: cells. The note with it: Homo sapiens, U-87 MG, 48 h.
Description: Antiproliferative activity against human U87MG cells after 48 hrs by MTT assay
Data set [12] is described as follows: AUC (0 to infinity) in BALB/c mouse at 20 mg/kg, po. The note with it: plasma. More on the design: time infinity, dose 20 mg/kg, route oral. It counts as ADME, organism-based.
A further data set deals with NCI-H1993. Description: cells. As to conditions: Homo sapiens, NCI-H1993, 48 h.
Data set [13] deals with T1, ALK tyrosine kinase receptor. Format: cell-based.
Target sequence in this assay (Q9UM73 19-1620 limits assumed): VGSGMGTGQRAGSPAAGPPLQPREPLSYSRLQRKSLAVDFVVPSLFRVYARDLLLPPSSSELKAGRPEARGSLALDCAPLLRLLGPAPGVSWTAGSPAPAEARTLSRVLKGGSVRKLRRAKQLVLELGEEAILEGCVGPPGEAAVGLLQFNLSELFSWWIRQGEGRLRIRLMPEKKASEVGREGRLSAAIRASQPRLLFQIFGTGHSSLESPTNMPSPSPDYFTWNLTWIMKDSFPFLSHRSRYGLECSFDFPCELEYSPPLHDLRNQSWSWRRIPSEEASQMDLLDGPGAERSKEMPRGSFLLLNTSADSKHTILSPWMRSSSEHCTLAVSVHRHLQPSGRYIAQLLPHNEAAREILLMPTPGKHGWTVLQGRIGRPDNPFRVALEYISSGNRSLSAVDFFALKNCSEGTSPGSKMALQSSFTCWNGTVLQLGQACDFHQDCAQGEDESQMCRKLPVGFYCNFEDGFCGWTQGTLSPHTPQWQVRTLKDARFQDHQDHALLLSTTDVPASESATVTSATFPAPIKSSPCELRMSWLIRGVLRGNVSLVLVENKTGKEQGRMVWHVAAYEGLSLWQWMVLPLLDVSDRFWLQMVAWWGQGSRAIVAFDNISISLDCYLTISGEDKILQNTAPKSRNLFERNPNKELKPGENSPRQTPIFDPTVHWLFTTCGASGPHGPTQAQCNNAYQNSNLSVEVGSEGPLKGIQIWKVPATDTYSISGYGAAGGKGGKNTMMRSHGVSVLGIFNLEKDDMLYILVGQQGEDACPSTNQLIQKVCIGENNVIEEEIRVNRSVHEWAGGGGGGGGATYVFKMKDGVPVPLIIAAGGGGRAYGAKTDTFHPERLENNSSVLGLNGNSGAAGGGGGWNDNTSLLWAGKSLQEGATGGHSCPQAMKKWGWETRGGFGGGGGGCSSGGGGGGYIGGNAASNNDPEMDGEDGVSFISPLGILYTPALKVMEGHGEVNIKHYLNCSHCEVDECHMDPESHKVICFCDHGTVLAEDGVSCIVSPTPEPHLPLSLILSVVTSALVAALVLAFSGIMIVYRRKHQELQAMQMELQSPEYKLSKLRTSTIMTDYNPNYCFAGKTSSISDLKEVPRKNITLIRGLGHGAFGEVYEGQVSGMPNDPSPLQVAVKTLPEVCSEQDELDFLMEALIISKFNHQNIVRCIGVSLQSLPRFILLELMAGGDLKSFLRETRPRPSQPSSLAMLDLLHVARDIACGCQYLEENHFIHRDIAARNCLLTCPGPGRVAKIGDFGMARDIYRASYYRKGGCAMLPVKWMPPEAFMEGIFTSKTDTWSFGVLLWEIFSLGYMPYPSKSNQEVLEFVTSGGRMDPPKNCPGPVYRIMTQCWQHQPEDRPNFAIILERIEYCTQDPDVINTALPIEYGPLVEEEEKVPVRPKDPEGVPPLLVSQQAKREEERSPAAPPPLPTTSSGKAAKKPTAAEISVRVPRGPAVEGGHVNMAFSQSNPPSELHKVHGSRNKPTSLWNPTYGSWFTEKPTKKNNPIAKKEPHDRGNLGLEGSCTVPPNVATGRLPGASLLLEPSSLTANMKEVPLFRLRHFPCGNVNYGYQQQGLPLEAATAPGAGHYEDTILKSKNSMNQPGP
Description: Inhibition of NPM-fused ALK phosphorylation (unknown origin) expressed in human karpas 299 cells after 90 mins by Sandwich-ELISA
Data set [14] is described as follows: animal or person. As to conditions: Homo sapiens, GTL 16, po, 336 h, read-out: TGI. The source holds these as a separate data set.
Description: Antitumor activity against human GTL16 cells xenografted in nu/nu mouse assessed as tumor growth inhibition at 40 mg/kg, po qd for 14 days
Data set [15] in a line: Cmax in BALB/c mouse at 5 mg/kg, iv. It counts as ADME, organism-based. More on the design: dose 5 mg/kg, route intravenous. As to conditions: in vivo.

Structures are written as SMILES. A value given as a limit tells only on which side of the number the result lay.

Hepatocyte growth factor receptor, sequence (P08581 whole entry): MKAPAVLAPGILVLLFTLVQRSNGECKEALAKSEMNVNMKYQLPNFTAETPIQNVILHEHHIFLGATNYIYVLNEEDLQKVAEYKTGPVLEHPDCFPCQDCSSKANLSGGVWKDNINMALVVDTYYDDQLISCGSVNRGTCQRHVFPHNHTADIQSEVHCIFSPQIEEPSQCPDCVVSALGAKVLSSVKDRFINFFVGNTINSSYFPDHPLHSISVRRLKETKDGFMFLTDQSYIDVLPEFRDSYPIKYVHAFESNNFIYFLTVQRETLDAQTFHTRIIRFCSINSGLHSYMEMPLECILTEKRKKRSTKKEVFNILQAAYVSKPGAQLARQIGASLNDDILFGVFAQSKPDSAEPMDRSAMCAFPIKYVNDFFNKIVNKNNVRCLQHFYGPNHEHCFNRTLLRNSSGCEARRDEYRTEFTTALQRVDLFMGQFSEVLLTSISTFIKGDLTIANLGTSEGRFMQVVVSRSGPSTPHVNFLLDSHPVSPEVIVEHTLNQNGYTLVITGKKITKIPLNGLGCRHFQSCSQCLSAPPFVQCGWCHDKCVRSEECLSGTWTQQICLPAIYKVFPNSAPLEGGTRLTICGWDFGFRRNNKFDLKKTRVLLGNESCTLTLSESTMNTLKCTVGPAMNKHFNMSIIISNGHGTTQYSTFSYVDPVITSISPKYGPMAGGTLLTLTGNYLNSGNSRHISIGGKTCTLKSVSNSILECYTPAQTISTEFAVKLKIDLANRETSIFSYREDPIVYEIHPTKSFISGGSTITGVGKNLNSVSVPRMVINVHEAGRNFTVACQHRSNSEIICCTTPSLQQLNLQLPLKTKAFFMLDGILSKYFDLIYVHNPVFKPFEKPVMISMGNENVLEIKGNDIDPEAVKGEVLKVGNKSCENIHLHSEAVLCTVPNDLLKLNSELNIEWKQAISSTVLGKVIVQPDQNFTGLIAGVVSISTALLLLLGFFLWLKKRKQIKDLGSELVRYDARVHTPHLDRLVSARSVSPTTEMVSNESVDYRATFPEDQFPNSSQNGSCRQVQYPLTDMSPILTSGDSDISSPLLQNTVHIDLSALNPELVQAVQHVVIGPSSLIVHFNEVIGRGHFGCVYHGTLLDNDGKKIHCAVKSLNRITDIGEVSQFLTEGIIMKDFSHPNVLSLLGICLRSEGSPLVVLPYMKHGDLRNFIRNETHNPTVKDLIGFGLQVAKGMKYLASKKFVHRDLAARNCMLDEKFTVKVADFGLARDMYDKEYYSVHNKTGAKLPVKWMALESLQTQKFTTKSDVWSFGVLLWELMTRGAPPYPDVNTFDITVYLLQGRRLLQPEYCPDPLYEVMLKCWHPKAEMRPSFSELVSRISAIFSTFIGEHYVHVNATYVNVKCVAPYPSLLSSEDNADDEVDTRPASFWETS
Description for NCI-H1993: Antiproliferative activity against human NCI-H1993 cells after 48 hrs by MTT assay

Broadly, the IC50 is the concentration that inhibits the measured activity by half. Low readings indicate higher potency, high ones lower potency. In the case of `CN1CCC2(CC1)C(=O)Nc1ccc(-c3cnc(N)c(OCc4c(Cl)ccc(F)c4Cl)c3)cc12`, the concentration for half-maximal inhibition (IC50) in data set [1] is above 10 µM.
Usually bioavailability stands for dose-corrected exposure relative to a reference, in per cent. The low end stands for poor availability, the high end for good availability. What is called AUC(0-inf) is the area under the concentration-time curve extrapolated to infinity. As a reminder, the Cmax is the highest concentration seen after dosing. As for `C[C@@H](Oc1cc(-c2ccc3c(c2)NC(=O)C32CCN(C)CC2)cnc1N)c1c(Cl)ccc(F)c1Cl`, the bioavailability in [2] is 48%. Besides, the total exposure AUC(0-inf) was 1230 ng·h/mL in data set [3] and 2350 ng·h/mL in data set [12]. Moreover, the IC50 in the data set “cells [4]” is 2820 nM; in data set [6], below 0.5 nM; in “cells [8]”, 20 nM; in the data set “cells [11]”, above 10 µM; in the data set on NCI-H1993 it was 1580 nM; in data set [13] it was 39 nM. For the same compound, the maximum concentration (Cmax) was 1450 nM in data set [5] and 1360 nM in data set [15]. In the data set with Mus musculus [7], this compound gave an F of 100%. In the data set with Mus musculus [9], the Activity result is reported as “Non-toxic”. Further, the inhibition in vivo at 20 mg/kg in the data set “animal or person [10]” stood at 52%. For the same compound, the inhibition in vivo at 40 mg/kg in “animal or person [14]” was 87%.
